Assay results published in patent US4051253A, “Microbicidal nitrofuryl compounds” (Byk Gulden Lomberg Chemische Fabrik GmbH, priority 1974, dated 1977).
In brackets after ≈: the same amount, converted by molar mass. Where two headings read alike, the source gives them in different places.

Legend:
Trichomonas foetus = experiment: Infection tests with Trichomonas foetus in mice; format: in vivo; settings: for % of Animals Dying After Infection (Mean Value): stomach tube, 3 successive days, NMRI mice
in vivo = settings: mouse
Klebs. pneum. PCI 602 = experiment: microbe, parasite or virus in culture; format: cell-based; settings: for MBC: read-out: Concentration from which subcultures no longer started; for MIC: read-out: Minimum inhibiting concentration (MHK), series dilution test
E. coli 6106 = experiment: microbe, parasite or virus in culture; format: cell-based; settings: for MIC: read-out: Minimum inhibiting concentration (MHK), series dilution test
Ps. aeruginosa 2 = experiment: microbe, parasite or virus in culture; format: cell-based; settings: for MIC: read-out: Minimum inhibiting concentration (MHK), series dilution test
Staph. aur. SG 511 = experiment: microbe, parasite or virus in culture; format: cell-based; settings: for MIC: read-out: Minimum inhibiting concentration (MHK), series dilution test
Staph. aur. PCI 1203 = experiment: microbe, parasite or virus in culture; format: cell-based; settings: for MBC: read-out: Concentration from which subcultures no longer started; for MIC: read-out: Minimum inhibiting concentration (MHK), series dilution test
streptococci group A 807 = experiment: microbe, parasite or virus in culture; format: cell-based; settings: for MIC: read-out: Minimum inhibiting concentration (MHK), series dilution test
streptoc. group B 779 = experiment: microbe, parasite or virus in culture; format: cell-based; settings: for MBC: read-out: Concentration from which subcultures no longer started; for MIC: read-out: Minimum inhibiting concentration (MHK), series dilution test
streptococci group C 805 = experiment: microbe, parasite or virus in culture; format: cell-based; settings: for MBC: read-out: Concentration from which subcultures no longer started; for MIC: read-out: Minimum inhibiting concentration (MHK), series dilution test
enterococci = experiment: microbe, parasite or virus in culture; format: cell-based; settings: for MIC: read-out: Minimum inhibiting concentration (MHK), series dilution test
C. Albicans 49 = experiment: microbe, parasite or virus in culture; format: cell-based; settings: Candida albicans; for MIC: read-out: Minimum inhibiting concentration (MHK), series dilution test
C. Paracrusei 45 = experiment: microbe, parasite or virus in culture; format: cell-based; settings: for MBC: read-out: Concentration from which subcultures no longer started; for MIC: read-out: Minimum inhibiting concentration (MHK), series dilution test
[1] = system: 9 bacteria and 2 yeast strains; experiment: In vitro tests with 9 bacteria and 2 yeast strains (summary); format: cell-based; settings: Table 2
[2] = system: Serratia marcescens strain HY/a 21
[3] = subcultures applied after 48 h, read after 24 h
[4] = 24 h, read-out: Concentration from which subcultures no longer started, subcultures applied after 24 h, read after 24 h
[5] = 48 h, read-out: Concentration from which subcultures no longer started, subcultures applied after 48 h, read after 48 h
[6] = read-out: Concentration from which subcultures no longer started, subcultures applied after 24 h, read after 48 h
[7] = read-out: Concentration from which subcultures no longer started, subcultures applied after 48 h, read after 24 h

Cc1ccccc1C(=O)NN=CC=Cc1ccc([N+](=O)[O-])o1 [A, 5-nitro-2-[(o-toluoylhydrazono)propen-1-yl]furan]
% of Animals Dying After Infection (Mean Value) (Trichomonas foetus; 3.12 mg/kg): 91.66%
% of Animals Dying After Infection (Mean Value) (Trichomonas foetus; 6.25 mg/kg): 36.33%
% of Animals Dying After Infection (Mean Value) (Trichomonas foetus; 12.5 mg/kg): 3.33%
animals survived / survival rate (Trichomonas foetus; dose of 6.25 mg/kg, mice infected with T. foetus): 63.3%
activity against T. foetus compared with metronidazol (in words) (Trichomonas foetus; infected mice): substantially better activity in mice infected with T. foetus
LD50 (in vivo): > 2000 mg/kg
MBC (Klebs. pneum. PCI 602; 24 h): 31.2 µg/mL (≈ 104 µM)
MIC (Klebs. pneum. PCI 602; 24 h): 7.8 µg/mL (≈ 26.1 µM)
MBC (Klebs. pneum. PCI 602; 48 h): 31.2 µg/mL (≈ 104 µM)
MIC (Klebs. pneum. PCI 602; 48 h): 7.8 µg/mL (≈ 26.1 µM)
MBC (Klebs. pneum. PCI 602): 31.2 µg/mL (≈ 104 µM)
Concentration from which subcultures no longer started (Klebs. pneum. PCI 602; [3]): 31.25 µg/mL
MBC (E. coli 6106; Escherichia coli, 6106, 24 h, read-out: Concentration from which subcultures no longer started): 62.5 µg/mL (≈ 209 µM)
MIC (E. coli 6106; Escherichia coli, 6106, 24 h): 31.2 µg/mL (≈ 104 µM)
MBC (E. coli 6106; Escherichia coli, 6106, 48 h, read-out: Concentration from which subcultures no longer started): 62.5 µg/mL (≈ 209 µM)
MIC (E. coli 6106; Escherichia coli, 6106, 48 h): 62.5 µg/mL (≈ 209 µM)
MBC (E. coli 6106; Escherichia coli, 6106, read-out: Concentration from which subcultures no longer started): 62.5 µg/mL (≈ 209 µM)
Concentration from which subcultures no longer started (E. coli 6106; [3]): 62.5 µg/mL
MBC (Ps. aeruginosa 2; Pseudomonas aeruginosa, 2, 24 h, read-out: Concentration from which subcultures no longer started): 250 µg/mL (≈ 835 µM)
MIC (Ps. aeruginosa 2; Pseudomonas aeruginosa, 2, 24 h): 250 µg/mL (≈ 835 µM)
MBC (Ps. aeruginosa 2; Pseudomonas aeruginosa, 2, 48 h, read-out: Concentration from which subcultures no longer started): 250 µg/mL (≈ 835 µM)
MIC (Ps. aeruginosa 2; Pseudomonas aeruginosa, 2, 48 h): 250 µg/mL (≈ 835 µM)
MBC (Ps. aeruginosa 2; Pseudomonas aeruginosa, 2, read-out: Concentration from which subcultures no longer started): 250 µg/mL (≈ 835 µM)
Concentration from which subcultures no longer started (Ps. aeruginosa 2; [3]): 250 µg/mL
MBC (Staph. aur. SG 511; [4]): 125 µg/mL (≈ 418 µM)
MIC (Staph. aur. SG 511; 24 h): 31.2 µg/mL (≈ 104 µM)
MBC (Staph. aur. SG 511; [5]): 31.2 µg/mL (≈ 104 µM)
MIC (Staph. aur. SG 511; 48 h): 31.2 µg/mL (≈ 104 µM)
MBC (Staph. aur. SG 511; [6]): 125 µg/mL (≈ 418 µM)
MBC (Staph. aur. SG 511; [7]): 31.2 µg/mL (≈ 104 µM)
MBC (Staph. aur. PCI 1203; 24 h): 31.2 µg/mL (≈ 104 µM)
MIC (Staph. aur. PCI 1203; 24 h): 15.6 µg/mL (≈ 52.1 µM)
MBC (Staph. aur. PCI 1203; 48 h): 31.2 µg/mL (≈ 104 µM)
MIC (Staph. aur. PCI 1203; 48 h): 31.2 µg/mL (≈ 104 µM)
MBC (Staph. aur. PCI 1203): 31.2 µg/mL (≈ 104 µM)
Concentration from which subcultures no longer started (Staph. aur. PCI 1203; [3]): 31.25 µg/mL
MBC (streptococci group A 807; [4]): 125 µg/mL (≈ 418 µM)
MIC (streptococci group A 807; 24 h): 31.2 µg/mL (≈ 104 µM)
MBC (streptococci group A 807; [5]): 125 µg/mL (≈ 418 µM)
MIC (streptococci group A 807; 48 h): 31.2 µg/mL (≈ 104 µM)
MBC (streptococci group A 807; [6]): 125 µg/mL (≈ 418 µM)
MBC (streptococci group A 807; [7]): 62.5 µg/mL (≈ 209 µM)
MBC (streptoc. group B 779; 24 h): 500 µg/mL (≈ 1670 µM)
MIC (streptoc. group B 779; 24 h): 250 µg/mL (≈ 835 µM)
MBC (streptoc. group B 779; 48 h): 500 µg/mL (≈ 1670 µM)
MIC (streptoc. group B 779; 48 h): 500 µg/mL (≈ 1670 µM)
MBC (streptoc. group B 779): 500 µg/mL (≈ 1670 µM)
Concentration from which subcultures no longer started (streptoc. group B 779; [3]): 500 µg/mL
MBC (streptococci group C 805; 24 h): 500 µg/mL (≈ 1670 µM)
MIC (streptococci group C 805; 24 h): 250 µg/mL (≈ 835 µM)
MBC (streptococci group C 805; 48 h): 500 µg/mL (≈ 1670 µM)
MIC (streptococci group C 805; 48 h): 250 µg/mL (≈ 835 µM)
MBC (streptococci group C 805): 500 µg/mL (≈ 1670 µM)
Concentration from which subcultures no longer started (streptococci group C 805; [3]): 500 µg/mL
MBC (enterococci; [4]): 250 µg/mL (≈ 835 µM)
MIC (enterococci; 24 h): 62.5 µg/mL (≈ 209 µM)
MBC (enterococci; [5]): 500 µg/mL (≈ 1670 µM)
MIC (enterococci; 48 h): 250 µg/mL (≈ 835 µM)
MBC (enterococci; [6]): 250 µg/mL (≈ 835 µM)
MBC (enterococci; [7]): 500 µg/mL (≈ 1670 µM)
MBC (C. Albicans 49; [4]): 62.5 µg/mL (≈ 209 µM)
MIC (C. Albicans 49; 24 h): 62.5 µg/mL (≈ 209 µM)
MBC (C. Albicans 49; [5]): 125 µg/mL (≈ 418 µM)
MIC (C. Albicans 49; 48 h): 62.5 µg/mL (≈ 209 µM)
MBC (C. Albicans 49; [6]): 62.5 µg/mL (≈ 209 µM)
MBC (C. Albicans 49; [7]): 125 µg/mL (≈ 418 µM)
MBC (C. Paracrusei 45; 24 h): 125 µg/mL (≈ 418 µM)
MIC (C. Paracrusei 45; 24 h): 62.5 µg/mL (≈ 209 µM)
MBC (C. Paracrusei 45; 48 h): 125 µg/mL (≈ 418 µM)
MIC (C. Paracrusei 45; 48 h): 125 µg/mL (≈ 418 µM)
MBC (C. Paracrusei 45): 125 µg/mL (≈ 418 µM)
Concentration from which subcultures no longer started (C. Paracrusei 45; [3]): 125 µg/mL
in vitro antibacterial/antiyeast effect compared with metronidazol (in words) [1]: substantially more favorable picture
Mutation frequency [2]: 0
mutagenicity, spot test (in words) ([2]; Table 3a): no mutants induced by A are observed
Mutants/ml, Test (S. typhimurium G 46; 200 mg/kg per os): 0 Mutants/ml
Mutants/ml, Test (S. typhimurium G 46; 400 mg/kg per os): 0 Mutants/ml
mutagenicity, host mediated assay (in words) (S. typhimurium G 46; Table 3b): no mutants induced by A are observed
Mutation frequency in test animals (S. typhimurium G 46; in vivo): 0
